These results are taken from ChEMBL document CHEMBL1201862, “PubChem BioAssay data set” (2004).

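Grown in 96-well plates, cells were treated for 48 hours with each compound at five concentrations. Insufficient inhibition: endpoint recorded as highest concentration tested. Abbreviation: GI50, concentration required for 50% inhibition of growth.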 Active and inactive are the calls of the source. Rule as the data show it: active = GI50 up to about 1.1 µM and inactive = higher. Residues, ends and D or L forms follow the SMILES beside them. *: point of attachment. Cbz = O=C(OCc1ccccc1)*

One experiment deals with BT-549. The experiment can be described thus: growth of human tumour cells (NCI), 48 h.
The subject of the next experiment is MDA-N. The experiment is described as follows: growth of human tumour cells (NCI), 48 h.

In the case of `Cn1c(=O)[nH]c2[nH]c3ccccc3c2c1=O`, the GI50 in the experiment on BT-549 and with MDA-N was > 100 µM (inactive) throughout.
As to `N=C(N)c1ccc(/C=C/c2ccc(C(=N)N)cc2)cc1`, the GI50 in the experiment with BT-549 and with MDA-N was > 100 µM (inactive) each time.
For `CN1CCCN2CCN(C)CCN(CC1)CC2`, the GI50 in the experiment with BT-549 and with MDA-N was > 100 µM (inactive) throughout.
Take `C1=C2C3=[N+](CCCC3)CC2Cc2sccc21` (centres undefined): the GI50 in the experiment on BT-549 was 82.6 µM (inactive); in the experiment with MDA-N, > 100 µM (inactive).
Take `CC(C)(C)c1ccc2c(c1)CNCCNCc1cc(C(C)(C)C)ccc1OCC1(CO2)COc2ccc(C(C)(C)C)cc2CNCCNCc2cc(C(C)(C)C)ccc2OC1`: the GI50 was 1.71 µM (inactive) in the experiment with BT-549 and 0.649 µM (active) in the experiment with MDA-N.
For `Cc1cn(C2CC(O)C(COP(=O)(O)OC3CC(n4c[n+]([BH2-]C#N)c5c(=O)[nH]c(N)nc54)OC3CO)O2)c(=O)[nH]c1=O` (centres undefined), in that order: > 100 µM (inactive) and > 100 µM (inactive).
For `O=C1CCCC/C1=C\c1ccc(Br)cc1`, in that order: 14.5 µM (inactive) and 16.3 µM (inactive).
For `COC(=O)[C@H](Cc1c[nH]c2ccccc12)NC(=O)OCC1OC(n2cc(C)c(=O)[nH]c2=O)CC1N=[N+]=[N-]` (some centres undefined), in that order: > 100 µM (inactive) and > 100 µM (inactive).
In the case of `O=C(O)c1cccc(/N=N/c2c(S(=O)(=O)O)ccc3c2C(=O)c2ccccc2C3=O)c1O`, the GI50 in the experiment on BT-549 and in the experiment on MDA-N was > 100 µM (inactive) throughout.
`CN(C)CCCNC(=O)c1cc(NC(=O)CCCn2c3ccccc3c3ccccc32)cn1C`: the GI50 is > 100 µM (inactive) in the experiment on BT-549 and 35.1 µM (inactive) in the experiment on MDA-N.
In the case of `CCN(CC)CCNc1c(OC)cc(C)c2sc3ccccc3c(=O)c12`, the GI50 in the experiment with BT-549 was 11.7 µM (inactive).
For `Cc1nn(C(=O)c2ccc(Cl)cc2)c2c1C(c1cccc([N+](=O)[O-])c1)SC(=N)N2` (centres undefined), the GI50 in the experiment on BT-549 and in the experiment on MDA-N was > 10 µM (inactive) each time.
Turning to `O=C1C=C(OCCCCl)C(=O)c2c(O)ccc(O)c21`, the figures for the GI50 in the experiment with BT-549 and with MDA-N were 1.09 µM (active) and 0.184 µM (active), respectively.
For `CCOC(=O)C(NC(=O)CC)(Nc1cc(C)on1)C(F)(F)F` (centres undefined), in that order: > 100 µM (inactive) and > 100 µM (inactive).
As to `Cc1cccc(-n2c(C)nc3ccc(NC4OC(CO)C(O)C(O)C4O)cc3c2=O)c1` (centres undefined), the GI50 with BT-549 and in the experiment with MDA-N was > 100 µM (inactive) throughout.
For the compound `Cc1ccc(S(=O)(=O)N(CC(O)COc2ccccc2)c2c(F)c(F)c(F)c(F)c2F)cc1` (centres undefined), the GI50 is 13.5 µM (inactive) in the experiment with BT-549 and 15.6 µM (inactive) in the experiment with MDA-N.
For `COc1c(C)c(OC)c2c(c1O)[C@@H]1[C@@H]3Cc4c(OC)c(C)c(OC)c(O)c4[C@H](CNC(=O)c4ccc5ccccc5n4)N3[C@@H](C#N)[C@H](C2)N1C`, in that order: 0.000377 µM (active) and 0.000807 µM (active).
Consider `CCCCCCCCCCCC/C=C\CC[C@@H](O)[C@H](O)CC[C@H](O)[C@@H]1CC[C@@H](CCCCCCCC2=C[C@H](C)OC2=O)O1` [GIGANTRIONENIN], for which the GI50 is 0.00819 µM (active) with BT-549 and 3.91 µM (inactive) with MDA-N.
For `CNC(=S)Nc1ccc(OC)c2ccccc12`, in that order: > 10 µM (inactive) and > 10 µM (inactive).
As for `CC(NC(=O)C(NC(=O)OCc1ccccc1)C(C)C)C(=O)NCC(=O)O` (stereo not drawn) (Cbz-Val-Ala-Gly-OH; configuration not given here), the GI50 with BT-549 and with MDA-N was > 100 µM (inactive) in each case.
In the case of `Cc1ccc(Nc2nc(N)nc3c2ncn3C2OC(CO)C(O)C2O)cc1` (centres undefined), the GI50 in the experiment with MDA-N is > 100 µM (inactive).
Still for that read-out and setting: as for `CCN1CCN=c2c3cc(OC)ccc3n3cnc4ccc1c2c43`, the figure is 0.256 µM (active).
Take `N=C(N)c1ccc(/N=N/c2c(O)ccc3cc(O)ccc23)cc1`: the GI50 in the experiment with BT-549 is > 100 µM (inactive).
In the case of `CCOC(=O)CNc1nc(=O)c2c(=O)oc(Cl)cc2o1`, the GI50 in the experiment on MDA-N is 14.2 µM (inactive).
For the compound `COc1nc(N)nc2c1ncn2C1CC(O)C(CO)O1` (centres undefined), the GI50 with BT-549 was > 100 µM (inactive).
